Columns and labels:
[1] = target: Serine/threonine-protein kinase 33 (Homo sapiens) (UniProt Q9BYT3); experiment: Inhibition of human recombinant STK33 at 500 nM in presence of ATP by radiometric assay relative to control
[2] = target: T1, Ephrin type-B receptor 2 (Homo sapiens) (UniProt P29323); experiment: Inhibition of human recombinant EphB2 at 500 nM related to control ULK1
T1 sequence (whole entry): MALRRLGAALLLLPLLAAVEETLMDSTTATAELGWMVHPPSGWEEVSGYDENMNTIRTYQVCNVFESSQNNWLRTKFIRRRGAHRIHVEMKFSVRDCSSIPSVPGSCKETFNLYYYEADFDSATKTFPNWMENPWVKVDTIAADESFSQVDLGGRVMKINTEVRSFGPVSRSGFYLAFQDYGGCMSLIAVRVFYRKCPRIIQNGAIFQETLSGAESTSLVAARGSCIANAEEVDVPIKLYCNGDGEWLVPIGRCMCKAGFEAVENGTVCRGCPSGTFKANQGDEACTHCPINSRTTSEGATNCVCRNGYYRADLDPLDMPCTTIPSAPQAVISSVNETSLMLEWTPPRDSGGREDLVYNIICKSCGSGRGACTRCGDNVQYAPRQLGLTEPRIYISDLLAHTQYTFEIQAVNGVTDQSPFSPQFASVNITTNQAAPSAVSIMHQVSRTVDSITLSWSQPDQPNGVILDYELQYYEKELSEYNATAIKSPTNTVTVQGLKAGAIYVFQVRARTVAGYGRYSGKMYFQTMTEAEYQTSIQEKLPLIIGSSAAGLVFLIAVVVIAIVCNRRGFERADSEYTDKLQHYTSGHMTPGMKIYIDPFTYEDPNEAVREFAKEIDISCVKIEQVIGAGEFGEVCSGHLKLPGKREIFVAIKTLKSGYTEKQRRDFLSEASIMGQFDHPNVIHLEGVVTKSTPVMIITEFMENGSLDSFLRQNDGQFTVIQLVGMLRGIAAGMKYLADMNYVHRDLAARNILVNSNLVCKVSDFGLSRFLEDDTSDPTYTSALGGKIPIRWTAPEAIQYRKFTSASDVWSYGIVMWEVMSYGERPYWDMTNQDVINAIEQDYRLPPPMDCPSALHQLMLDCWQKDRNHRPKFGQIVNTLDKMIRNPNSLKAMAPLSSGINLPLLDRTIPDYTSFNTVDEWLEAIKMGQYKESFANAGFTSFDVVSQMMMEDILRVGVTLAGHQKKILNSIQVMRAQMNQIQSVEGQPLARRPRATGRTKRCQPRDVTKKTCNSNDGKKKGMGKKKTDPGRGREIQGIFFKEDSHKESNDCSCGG

[3] = target: Ribosomal protein S6 kinase alpha-3 (Homo sapiens) (UniProt P51812); experiment: Inhibition of human recombinant RSK2 at 500 nM related to control ULK1
Ribosomal protein S6 kinase alpha-3 (Homo sapiens), sequence (P51812 whole entry): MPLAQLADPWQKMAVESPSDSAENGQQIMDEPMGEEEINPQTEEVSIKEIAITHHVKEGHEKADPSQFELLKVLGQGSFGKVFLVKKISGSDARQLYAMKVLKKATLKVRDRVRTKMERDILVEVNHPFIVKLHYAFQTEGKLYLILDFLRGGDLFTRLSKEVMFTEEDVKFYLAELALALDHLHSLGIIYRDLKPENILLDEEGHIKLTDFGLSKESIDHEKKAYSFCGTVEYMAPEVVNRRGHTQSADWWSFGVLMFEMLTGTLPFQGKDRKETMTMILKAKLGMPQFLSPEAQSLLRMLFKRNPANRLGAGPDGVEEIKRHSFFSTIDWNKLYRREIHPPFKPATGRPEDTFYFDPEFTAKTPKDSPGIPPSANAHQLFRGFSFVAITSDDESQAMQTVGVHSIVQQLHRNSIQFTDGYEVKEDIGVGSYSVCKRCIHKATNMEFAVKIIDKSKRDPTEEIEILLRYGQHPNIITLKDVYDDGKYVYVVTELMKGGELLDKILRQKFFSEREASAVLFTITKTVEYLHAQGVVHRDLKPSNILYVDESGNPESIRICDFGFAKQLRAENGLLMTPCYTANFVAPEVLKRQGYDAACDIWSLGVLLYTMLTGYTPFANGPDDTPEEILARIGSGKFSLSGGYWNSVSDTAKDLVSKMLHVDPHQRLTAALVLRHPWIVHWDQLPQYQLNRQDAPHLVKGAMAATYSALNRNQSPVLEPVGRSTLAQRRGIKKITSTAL

[4] = target: T2, Dual specificity tyrosine-phosphorylation-regulated kinase 3 (Homo sapiens) (UniProt O43781); experiment: Inhibition of human recombinant DYRK3 at 500 nM in presence of ATP by radiometric assay relative to control
T2 sequence (whole entry): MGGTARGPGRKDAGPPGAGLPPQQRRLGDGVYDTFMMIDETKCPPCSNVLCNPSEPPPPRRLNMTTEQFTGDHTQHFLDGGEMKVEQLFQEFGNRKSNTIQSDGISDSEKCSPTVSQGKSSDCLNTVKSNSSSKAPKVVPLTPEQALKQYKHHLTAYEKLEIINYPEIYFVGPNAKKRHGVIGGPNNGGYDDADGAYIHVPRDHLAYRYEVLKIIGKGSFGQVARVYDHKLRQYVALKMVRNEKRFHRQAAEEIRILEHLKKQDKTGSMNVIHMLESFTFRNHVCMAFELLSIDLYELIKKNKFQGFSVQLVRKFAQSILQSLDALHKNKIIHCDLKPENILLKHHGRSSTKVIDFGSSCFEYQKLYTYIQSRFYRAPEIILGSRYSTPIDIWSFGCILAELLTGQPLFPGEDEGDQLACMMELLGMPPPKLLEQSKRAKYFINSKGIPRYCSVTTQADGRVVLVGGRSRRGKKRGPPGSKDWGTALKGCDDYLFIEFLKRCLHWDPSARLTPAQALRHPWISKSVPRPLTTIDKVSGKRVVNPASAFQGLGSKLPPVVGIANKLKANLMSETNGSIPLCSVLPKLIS

[5] = target: Mast/stem cell growth factor receptor Kit (Homo sapiens) (UniProt P10721); experiment: Inhibition of human recombinant KIT at 15 nM in presence of ATP by radiometric assay relative to control
Mast/stem cell growth factor receptor Kit (Homo sapiens), sequence (P10721 whole entry): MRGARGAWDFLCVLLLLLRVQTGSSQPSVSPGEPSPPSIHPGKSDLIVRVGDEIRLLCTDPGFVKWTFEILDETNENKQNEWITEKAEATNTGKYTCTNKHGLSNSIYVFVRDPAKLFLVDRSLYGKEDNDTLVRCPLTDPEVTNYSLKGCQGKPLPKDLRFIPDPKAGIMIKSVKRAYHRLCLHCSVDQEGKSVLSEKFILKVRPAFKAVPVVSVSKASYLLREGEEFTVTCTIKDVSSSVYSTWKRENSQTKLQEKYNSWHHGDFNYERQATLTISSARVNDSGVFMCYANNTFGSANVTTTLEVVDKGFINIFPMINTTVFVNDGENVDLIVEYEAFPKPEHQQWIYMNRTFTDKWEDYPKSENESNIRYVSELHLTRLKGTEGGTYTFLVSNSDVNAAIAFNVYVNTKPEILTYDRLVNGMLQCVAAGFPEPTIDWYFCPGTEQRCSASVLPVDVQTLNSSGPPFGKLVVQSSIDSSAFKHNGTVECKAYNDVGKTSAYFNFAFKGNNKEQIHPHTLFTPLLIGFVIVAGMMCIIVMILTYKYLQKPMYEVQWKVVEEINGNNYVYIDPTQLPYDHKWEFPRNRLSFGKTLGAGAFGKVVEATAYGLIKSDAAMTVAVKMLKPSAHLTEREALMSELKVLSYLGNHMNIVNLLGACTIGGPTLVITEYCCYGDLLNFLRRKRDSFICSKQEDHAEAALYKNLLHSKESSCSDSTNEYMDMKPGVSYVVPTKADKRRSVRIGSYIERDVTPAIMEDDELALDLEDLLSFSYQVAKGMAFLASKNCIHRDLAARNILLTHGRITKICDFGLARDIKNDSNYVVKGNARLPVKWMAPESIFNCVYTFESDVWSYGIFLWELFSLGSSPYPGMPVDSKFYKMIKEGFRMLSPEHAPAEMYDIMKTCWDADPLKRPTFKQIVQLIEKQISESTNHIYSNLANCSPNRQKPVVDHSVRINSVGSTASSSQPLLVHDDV

[6] = target: Casein kinase II subunit alpha (Homo sapiens) (UniProt P68400); experiment: Inhibition of human recombinant CK2a1 at 15 nM related to control ULK1
Casein kinase II subunit alpha (Homo sapiens), sequence (P68400 whole entry, looked up): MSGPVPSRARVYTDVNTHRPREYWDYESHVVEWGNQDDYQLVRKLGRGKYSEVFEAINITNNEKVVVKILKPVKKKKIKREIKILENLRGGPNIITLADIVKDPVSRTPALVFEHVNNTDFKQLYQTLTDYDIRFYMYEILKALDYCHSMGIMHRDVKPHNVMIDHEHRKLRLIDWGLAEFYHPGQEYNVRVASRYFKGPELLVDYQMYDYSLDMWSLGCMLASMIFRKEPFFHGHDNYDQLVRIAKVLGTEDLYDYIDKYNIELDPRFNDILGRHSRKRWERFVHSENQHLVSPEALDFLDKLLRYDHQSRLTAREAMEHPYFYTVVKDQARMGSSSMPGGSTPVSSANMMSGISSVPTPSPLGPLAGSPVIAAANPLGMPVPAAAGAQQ

Serine/threonine-protein kinase 33 (Homo sapiens), sequence (Q9BYT3 whole entry, looked up): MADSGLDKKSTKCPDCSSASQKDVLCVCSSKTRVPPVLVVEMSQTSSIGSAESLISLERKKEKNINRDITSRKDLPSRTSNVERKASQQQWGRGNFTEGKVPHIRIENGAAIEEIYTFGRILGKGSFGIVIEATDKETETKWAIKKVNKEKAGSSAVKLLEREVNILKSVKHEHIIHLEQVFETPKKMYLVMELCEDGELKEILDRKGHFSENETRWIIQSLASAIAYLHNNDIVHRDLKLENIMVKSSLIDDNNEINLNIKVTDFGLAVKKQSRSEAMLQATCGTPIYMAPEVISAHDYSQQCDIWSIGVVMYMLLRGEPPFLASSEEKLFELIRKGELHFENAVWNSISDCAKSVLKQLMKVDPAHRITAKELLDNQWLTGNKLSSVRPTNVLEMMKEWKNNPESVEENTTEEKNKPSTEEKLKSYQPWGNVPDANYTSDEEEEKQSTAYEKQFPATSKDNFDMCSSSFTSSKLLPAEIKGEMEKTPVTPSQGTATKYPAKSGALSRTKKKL

SMILES | inhibition [1] | fold change (FC) [2] | fold change (FC) [3] | inhibition [4] | inhibition [5] | fold change (FC) [6]
CNC(=O)c1ccccc1Oc1nc(Nc2cc(OC)c(OC)c(OC)c2)ncc1Br | 4% | 0.2 | 0.5 | 0% | – | –
CC(C)[C@H](NC(=O)c1cc(-c2cnn3cc(-c4ccc(OCCN5CCCCC5)cc4)cnc23)cs1)C(F)(F)F | – | – | – | – | 0% | 0

From ChEMBL document CHEMBL5653631, “A Potent and Selective ULK1 Inhibitor Suppresses Autophagy and Sensitizes Cancer Cells to Nutrient Stress” (iScience, 2018)
